According to patent US20170319552A1, “ATROPISOMERS OF TRIAZOLE DERIVATIVE” (ARDEA BIOSCIENCES, INC., priority 2016, published 2017):
Read-outs that look alike come from different tables or passages of the source.

Tests used:
[1] = In vivo human metabolism, plasma and urine pharmacokinetics after single oral dose of racemic Compound (I)
Experimental: Plasma samples were collected prior to dosing (within 30 minutes before dosing) and at the following timepoints: 0.5, 1, 1.5, 2, 3, 4, 5, 6, 8, 10, 12, and 24 hours postdose. Urine was also collected. […] The supernatant was diluted with injection solvent and analyzed by HPLC with tandem mass spectrometry (LC/MS/MS). […] The calibration curves were linear over the concentration range between 5.00 ng/mL and 2000 ng/mL with a lower limit of quantification (LLOQ) of 5.00 ng/mL.
Using the above data, the following plasma pharmacokinetic parameters were calculated using validated Phoenix WinNonlin, version 6.3 (Pharsight Corporation, Mountain View, Calif.) and are shown (geometric mean 95% CI) in tables 11, 12, and 13 below.
• Cmax: Maximum observed concentration (μg/mL) • Tmax: Time of occurrence of maximum observed concentration (hr) • AUC0-24: Area under plasma concentration-vs-time curve, from time 0 to 24 hours postdose (μg·hr/mL) • C24: Concentration 24 hours post dose (μg/mL) • t1/2: Apparent terminal half-life (hr)

Solubility in water = format: physicochemical
[2] = Atropisomer interconversion, thermal challenge in organic solvent (acetonitrile); format: physicochemical
Experimental: (§1) The individual atropisomers of Compound (I), atropisomer 1 and atropisomer 2 (elution order from normal-phase chiral chromatography) were exposed to various conditions, including thermal challenge in both organic and aqueous media and exposure to simulated biological conditions, to ascertain whether they readily interconvert.
Samples of each separate atropisomers were held at 60° C. for four days and then analyzed by high performance liquid chromatography (AGMS02 Agilent 1100) on a normal phase amylose-based chiral column (ChiralPak IA-3, 3 μm, 100×4.6 mm, column 244), using isocratic elution and UV detection at 226 nm (see example 1).

[3] = Atropisomer interconversion, thermal challenge in aqueous solvent (dilute sodium bicarbonate); format: physicochemical
Experimental: as §1
Atropisomer 1 was dissolved in dilute aqueous sodium bicarbonate solution. Atropisomer 2 was dissolved in dilute aqueous sodium bicarbonate solution. […] Samples of the resulting solutions were exposed to room temperature (rt), 60° C., and 100° C. for four days. After four days, the samples were concentrated to dryness (SpeedVac evaporator—DNA120, property H001630), redissolved in acetonitrile and analyzed by high performance liquid chromatography (AGMS02 Agilent 1100) on a normal phase amylose-based chiral column (ChiralPak IA-3, 3 μm, 100×4.6 mm, column 244), using isocratic elution and UV detection at 226 nm (see example 1). […] Sample chromatograms at t0, 60° C., and 100° C. after four days, are depicted in FIG. 3A, FIG. 3B and FIG. 3C respectively.

[4] = In vitro metabolism, incubations with human liver microsomes; format: in vitro ADME
Experimental: Human liver microsomes (0.5 mg/mL; mixed gender, ultrapooled, BD Biosciences, catalog number 452117) were incubated at 37±1° C. in 0.2 mL (final volume) of incubation mixtures containing potassium phosphate buffer (100 mM, pH7.4), MgCl2 (3 mM), NADPH (1 mM), and the atropisomers (1, 10, or 50 μM) (all experiments performed in duplicate). Stock solutions of atropisomers were prepared with DMSO at 100 mM. The final concentration of DMSO in the incubation was at or less than 0.05%. Reactions were initiated by addition of NADPH solution and terminated at predetermined time point (30 min) by addition of stop reagent (300 μL chilled acetonitrile containing 0.1 μM of 7-hydroxycoumarin as an internal standard). After incubation, microsomal proteins were precipitated by centrifugation at 3300×g for 15 min at 4° C. Supernatant fractions were analyzed by LC-MS/MS.
HPLC mass spectrometer system: An API4000 triple quadrupole mass spectrometer equipped with electrospray ionization ion source was used for quantitation and operated in positive mode. The HPLC system consisted of a CTC Analytics PAL autosampler, an Agilent 1100 series degasser (G1379A), and an Agilent 1100 series binary pump (G1312A). […]
The formation of M3, M3c, M4 and M6 from each atropisomer in liver microsomal and recombinant CYP incubations was determined, based on the peak area ratio of analyte over internal standard (IS)

human URAT1 transporter = target: T1, human URAT1 transporter (Homo sapiens, UniProt Q96S37); test: HEK293 hURAT1 stable cell-line uric acid uptake assay; format: cell-based; settings: from IC50 values of table 5
T1 sequence (Q96S37 1-553): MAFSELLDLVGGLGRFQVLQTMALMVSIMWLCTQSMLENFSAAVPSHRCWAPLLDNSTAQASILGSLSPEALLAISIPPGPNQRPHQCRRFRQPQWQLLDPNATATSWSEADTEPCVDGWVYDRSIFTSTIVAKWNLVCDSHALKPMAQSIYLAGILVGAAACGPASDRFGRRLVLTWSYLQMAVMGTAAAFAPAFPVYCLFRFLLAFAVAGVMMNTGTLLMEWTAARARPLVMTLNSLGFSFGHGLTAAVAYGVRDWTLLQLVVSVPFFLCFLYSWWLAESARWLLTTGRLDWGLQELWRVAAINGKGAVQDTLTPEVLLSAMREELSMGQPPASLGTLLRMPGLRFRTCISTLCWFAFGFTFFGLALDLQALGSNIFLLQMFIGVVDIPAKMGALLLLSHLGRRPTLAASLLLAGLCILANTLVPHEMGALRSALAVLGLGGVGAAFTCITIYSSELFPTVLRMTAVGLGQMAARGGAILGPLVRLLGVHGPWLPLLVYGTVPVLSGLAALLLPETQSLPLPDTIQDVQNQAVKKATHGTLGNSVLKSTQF
Source text: Generation and Screening of HEK293 Stable Cell Lines—HEK293 human embryonic kidney cells (ATCC #CRL-1573, Manassas, Va.) were propagated in EMEM tissue culture medium as described by ATCC in an atmosphere of 5% CO2 and 95% air. HEK293 cells were transfected with the expression plasmids described above (pCMV6-neo URAT1 or pCMV6-neo OAT4) using Lipofectamine 2000 (Invitrogen, Carlsbad, Calif.), according to the manufacturer's instructions. The lipid/DNA transfection mixture was removed after five hours on the cells and fresh growth medium was added. After another 24 hr the cells were split into 10 cm plates. The next day G418 (Gibco, Carlsbad, Calif.) selection agent was added to the growth medium at a final concentration of 0.5 mg/ml. Fresh G418-containing medium was added every three days until drug-resistant colonies were obtained and also when the majority of mock-transfected cells were dead. […]
HEK293 hURAT 1 Stable Cell-Line Uric Acid Uptake Assay—Cells were seeded onto 96-well poly-D-lysine coated tissue culture plates at a density of 1.25×10^5 cells per well and grown at 37° C. overnight. […] Cells were lysed by adding 150 μl of MicroScint 20 scintillation fluid (PerkinElmer) to each well and radioactivity was counted the following day using a Beckman TopCount plate reader.
Calculation—The IC50 was calculated using Sigmoidal Dose-Response Model using XLFIT(IDBS, Alameda, Calif.).

[5] = plasma, geometric mean, single oral 400 mg racemic Compound (I), human
[6] = Plasma Concentration (Mean), single oral 400 mg racemic Compound (I), human
[7] = Urine PK Parameters (Geometric mean, CI 95%), single oral 400 mg racemic Compound (I), human

Question: Which results are given for `O=C(O)CSc1nnc(Br)n1-c1ccc(C2CC2)c2ccccc12` (racemic) [Compound (I), 2-(5-bromo-4-(4-cyclopropylnaphthalen-1-yl)-4H-1,2,4-triazol-3-ylthio)acetic acid]?
Answer: concentration at 0.5 h ([1]; male, human, plasma, po, 400 mg, 0.5 hr postdose, single oral 400 mg Compound (I) racemic mixture, adult male subjects): 157 ng/mL; concentration at 1 h ([1]; male, human, plasma, po, 400 mg, 1 hr postdose, single oral 400 mg Compound (I) racemic mixture, adult male subjects): 3900 ng/mL; concentration at 1.5 h ([1]; male, human, plasma, po, 400 mg, 1.5 hr postdose, single oral 400 mg Compound (I) racemic mixture, adult male subjects): 7860 ng/mL; concentration at 2 h ([1]; male, human, plasma, po, 400 mg, 2 hr postdose, single oral 400 mg Compound (I) racemic mixture, adult male subjects): 9380 ng/mL; concentration at 3 hr ([1]; male, human, plasma, po, 400 mg, 3 hr postdose, single oral 400 mg Compound (I) racemic mixture, adult male subjects): 11400 ng/mL; concentration at 4 hr ([1]; male, human, plasma, po, 400 mg, 4 hr postdose, single oral 400 mg Compound (I) racemic mixture, adult male subjects): 9080 ng/mL; concentration at 5 hr ([1]; male, human, plasma, po, 400 mg, 5 hr postdose, single oral 400 mg Compound (I) racemic mixture, adult male subjects): 6980 ng/mL; concentration at 6 hr ([1]; male, human, plasma, po, 400 mg, 6 hr postdose, single oral 400 mg Compound (I) racemic mixture, adult male subjects): 3810 ng/mL; concentration at 8 hr ([1]; male, human, plasma, po, 400 mg, 8 hr postdose, single oral 400 mg Compound (I) racemic mixture, adult male subjects): 1530 ng/mL; concentration at 10 hr ([1]; male, human, plasma, po, 400 mg, 10 hr postdose, single oral 400 mg Compound (I) racemic mixture, adult male subjects): 815 ng/mL; concentration at 12 hr ([1]; male, human, plasma, po, 400 mg, 12 hr postdose, single oral 400 mg Compound (I) racemic mixture, adult male subjects): 503 ng/mL; concentration at 24 h ([1]; male, human, plasma, po, 400 mg, 24 hr postdose, single oral 400 mg Compound (I) racemic mixture, adult male subjects): 84 ng/mL; AUC(0-t) ([1]; male, human, plasma, po, 400 mg, Plasma Concentration (Mean), single oral 400 mg racemic Compound (I), human, read-out: AUC0-24): 54900 ng·h/mL; Cmax ([1]; male, human, plasma, po, 400 mg, Plasma Concentration (Mean), single oral 400 mg racemic Compound (I), human, read-out: Cmax): 13500 ng/mL; Cmax ([1]; male, human, plasma, po, 400 mg, plasma, geometric mean, single oral 400 mg racemic Compound (I), human, read-out: Cmax: Maximum observed concentration): 12800 ng/mL; half-life ([1]; male, human, plasma, po, 400 mg, plasma, geometric mean, single oral 400 mg racemic Compound (I), human, read-out: t1/2: Apparent terminal half-life (converted)): 4.18 h; concentration at 0 h ([1]; male, human, plasma, po, 400 mg, time 0 hr (prior to dosing), single oral 400 mg Compound (I) racemic mixture, adult male subjects): 0 ng/mL; Tmax ([1]; male, human, plasma, po, 400 mg, read-out: Tmax: Time of occurrence of maximum observed concentration): 3 h; AUC0-24: Area under plasma concentration-vs-time curve, from time 0 to 24 hours postdose [1, 5]: 52.9 µg·h/mL; Solubility in water (Solubility in water): low

Question: Which Mean plasma concentration ([1]; 0.5 hr postdose, single oral 400 mg Compound (I) racemic mixture, adult male subjects) does the source give for `O=C(O)CSc1nnc(Br)n1-c1ccc(C2CC2)c2ccccc12` (single isomer, unassigned) [Atropisomer 2, (+)-2-(5-bromo-4-(4-cyclopropylnaphthalen-1-yl)-4H-1,2,4-triazol-3-ylthio)acetic acid] here?
Answer: 108 ng/mL

Question: What about the Mean plasma concentration ([1]; 1 hr postdose, single oral 400 mg Compound (I) racemic mixture, adult male subjects) of the same molecule?
Answer: 2573 ng/mL

Question: What about the Mean plasma concentration ([1]; 1.5 hr postdose, single oral 400 mg Compound (I) racemic mixture, adult male subjects) of the same molecule?
Answer: 4975 ng/mL

Question: What about the Mean plasma concentration ([1]; 2 hr postdose, single oral 400 mg Compound (I) racemic mixture, adult male subjects) of the same molecule?
Answer: 5765 ng/mL

Question: And the Mean plasma concentration ([1]; 3 hr postdose, single oral 400 mg Compound (I) racemic mixture, adult male subjects)?
Answer: 6921 ng/mL

Question: What about the Mean plasma concentration ([1]; 4 hr postdose, single oral 400 mg Compound (I) racemic mixture, adult male subjects) of the same molecule?
Answer: 5577 ng/mL

Question: What about the Mean plasma concentration ([1]; 5 hr postdose, single oral 400 mg Compound (I) racemic mixture, adult male subjects) of the same molecule?
Answer: 4314 ng/mL

Question: What about the Mean plasma concentration ([1]; 6 hr postdose, single oral 400 mg Compound (I) racemic mixture, adult male subjects) of the same molecule?
Answer: 2322 ng/mL

Question: What about the Mean plasma concentration ([1]; 8 hr postdose, single oral 400 mg Compound (I) racemic mixture, adult male subjects) of the same molecule?
Answer: 918 ng/mL

Question: And the Mean plasma concentration ([1]; 10 hr postdose, single oral 400 mg Compound (I) racemic mixture, adult male subjects)?
Answer: 495 ng/mL

Question: And the Mean plasma concentration ([1]; 12 hr postdose, single oral 400 mg Compound (I) racemic mixture, adult male subjects)?
Answer: 309 ng/mL

Question: What about the Mean plasma concentration ([1]; 24 hr postdose, single oral 400 mg Compound (I) racemic mixture, adult male subjects) of the same molecule?
Answer: 63 ng/mL

Question: What about the AUC0-24 [1, 6] of the same molecule?
Answer: 33800 ng·h/mL

Question: And the Cmax [1, 6]?
Answer: 8200 ng/mL

Question: And the Ae0-24 [1, 7]?
Answer: 101 mg

Question: What about the CLR0-24 [1, 7] of the same molecule?
Answer: 51.6 mL/min

Question: And the “AUC0-24: Area under plasma concentration-vs-time curve, from time 0 to 24 hours postdose” value [1, 5]?
Answer: 32.7 µg·h/mL

Question: What about the “C24 h: Concentration 24 hours post dose” value [1, 5] of the same molecule?
Answer: 50.8 ng/mL

Question: And the “Cmax: Maximum observed concentration” value [1, 5]?
Answer: 7920 ng/mL

Question: And the “t1/2: Apparent terminal half-life” value [1, 5]?
Answer: 4.67 h

Question: What about the “Tmax: Time of occurrence of maximum observed concentration” value ([1]; plasma, single oral 400 mg racemic Compound (I), human) of the same molecule?
Answer: 3.00 h

Question: What about the Mean plasma concentration ([1]; time 0 hr (prior to dosing), single oral 400 mg Compound (I) racemic mixture, adult male subjects) of the same molecule?
Answer: 0 ng/mL

Question: What about the “% Atropisomer 1” value ([2]; acetonitrile 0.25 mg/mL, t0) of the same molecule?
Answer: 1.0%

Question: What about the “% Atropisomer 2” value ([2]; acetonitrile 0.25 mg/mL, t0) of the same molecule?
Answer: 99.0%

Question: What about the “% Atropisomer 1” value ([2]; acetonitrile, 60° C. 4 days) of the same molecule?
Answer: 1.0%

Question: What about the “% Atropisomer 2” value ([2]; acetonitrile, 60° C. 4 days) of the same molecule?
Answer: 99.0%

Question: What about the “% Atropisomer 1” value ([3]; 60° C. 4 days) of the same molecule?
Answer: 0.4%

Question: And the “% Atropisomer 2” value ([3]; 60° C. 4 days)?
Answer: 99.6%

Question: And the “% Atropisomer 1” value ([3]; 100° C. 4 days)?
Answer: 0.6%

Question: What about the “% Atropisomer 2” value ([3]; 100° C. 4 days) of the same molecule?
Answer: 99.4%

Question: And the “% Atropisomer 1” value ([3]; rt, 4 days)?
Answer: 0.4%

Question: And the “% Atropisomer 2” value ([3]; rt, 4 days)?
Answer: 99.6%

Question: And the “% Atropisomer 1” value ([3]; t0 (control))?
Answer: 0.4%

Question: What about the “% Atropisomer 2” value ([3]; t0 (control)) of the same molecule?
Answer: 99.6%

Question: And the M3c formation [4]?
Answer: only trace levels

Question: What about the “Greater inhibition of URAT1 than atropisomer 1” value (human URAT1 transporter) of the same molecule?
Answer: approximately 4 fold
